Patent publication US9637472B2, “Substituted 6,5-fused bicyclic heteroaryl compounds” (Epizyme, Inc., priority 2011, dated 2017)
pIC50: −log10 of the molar value.

The molecules below were run against EZH2 (Homo sapiens (Human), UniProt Q15910) (assay: PRC2 enzyme assay on peptide substrates). Details: PRC2 enzyme assays on peptide substrates; 4 nM enzyme, 30 min preincubation at 25° C.; read-out: EZH2 IC50.
Sequence of EZH2 (Q15910 other isoform, or with tags, fused parts or gaps): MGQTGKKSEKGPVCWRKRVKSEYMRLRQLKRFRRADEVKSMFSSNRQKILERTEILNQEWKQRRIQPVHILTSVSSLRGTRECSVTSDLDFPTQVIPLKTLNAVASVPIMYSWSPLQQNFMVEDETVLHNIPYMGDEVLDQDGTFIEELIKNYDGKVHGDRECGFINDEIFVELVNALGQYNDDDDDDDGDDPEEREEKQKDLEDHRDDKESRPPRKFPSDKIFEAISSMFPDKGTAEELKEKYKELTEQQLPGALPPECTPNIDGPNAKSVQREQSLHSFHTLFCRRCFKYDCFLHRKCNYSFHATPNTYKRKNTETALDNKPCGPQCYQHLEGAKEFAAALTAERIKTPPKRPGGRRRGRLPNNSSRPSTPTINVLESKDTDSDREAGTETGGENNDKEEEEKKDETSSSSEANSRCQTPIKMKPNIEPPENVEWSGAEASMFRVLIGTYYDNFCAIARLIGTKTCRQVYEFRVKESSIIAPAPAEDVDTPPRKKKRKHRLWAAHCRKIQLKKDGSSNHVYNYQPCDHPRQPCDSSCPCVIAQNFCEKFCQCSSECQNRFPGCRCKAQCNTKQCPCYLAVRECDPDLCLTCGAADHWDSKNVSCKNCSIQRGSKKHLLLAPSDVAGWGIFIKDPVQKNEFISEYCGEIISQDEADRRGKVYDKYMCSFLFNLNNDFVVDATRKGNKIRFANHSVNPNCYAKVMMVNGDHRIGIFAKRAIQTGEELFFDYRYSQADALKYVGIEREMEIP
Sequence of EZH2 (O75530 whole entry partner): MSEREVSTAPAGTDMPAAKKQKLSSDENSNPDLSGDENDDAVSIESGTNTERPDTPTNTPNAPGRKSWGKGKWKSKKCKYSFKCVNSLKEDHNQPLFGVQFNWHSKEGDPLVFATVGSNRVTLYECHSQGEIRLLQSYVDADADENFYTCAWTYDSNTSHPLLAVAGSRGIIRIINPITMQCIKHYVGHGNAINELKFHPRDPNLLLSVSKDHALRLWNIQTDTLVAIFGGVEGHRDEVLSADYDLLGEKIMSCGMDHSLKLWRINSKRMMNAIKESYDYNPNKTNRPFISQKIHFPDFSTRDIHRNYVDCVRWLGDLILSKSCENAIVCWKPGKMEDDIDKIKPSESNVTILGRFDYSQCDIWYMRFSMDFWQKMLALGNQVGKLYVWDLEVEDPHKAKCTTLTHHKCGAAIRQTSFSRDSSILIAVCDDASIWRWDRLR
Sequence of EZH2 (Q15022 whole entry partner): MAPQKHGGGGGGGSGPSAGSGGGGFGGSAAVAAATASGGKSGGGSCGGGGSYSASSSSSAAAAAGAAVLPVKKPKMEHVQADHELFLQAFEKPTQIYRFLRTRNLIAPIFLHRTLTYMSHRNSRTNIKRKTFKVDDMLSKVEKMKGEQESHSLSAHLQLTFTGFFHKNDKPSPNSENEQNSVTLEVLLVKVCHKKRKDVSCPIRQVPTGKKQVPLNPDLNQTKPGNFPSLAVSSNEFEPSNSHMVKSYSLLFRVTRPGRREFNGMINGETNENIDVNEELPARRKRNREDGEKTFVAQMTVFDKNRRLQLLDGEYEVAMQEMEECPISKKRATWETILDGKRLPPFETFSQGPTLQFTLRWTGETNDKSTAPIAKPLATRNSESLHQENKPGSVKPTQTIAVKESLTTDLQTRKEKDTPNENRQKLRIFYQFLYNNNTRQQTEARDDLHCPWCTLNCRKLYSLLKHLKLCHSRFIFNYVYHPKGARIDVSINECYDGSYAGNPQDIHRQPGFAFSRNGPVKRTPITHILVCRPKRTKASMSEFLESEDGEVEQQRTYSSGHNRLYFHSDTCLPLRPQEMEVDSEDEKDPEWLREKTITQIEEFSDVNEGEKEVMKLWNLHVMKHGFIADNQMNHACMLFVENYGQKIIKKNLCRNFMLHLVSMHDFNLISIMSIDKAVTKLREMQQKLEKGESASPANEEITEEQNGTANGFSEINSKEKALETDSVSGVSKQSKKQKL
Sequence of EZH2 (Q09028 whole entry partner): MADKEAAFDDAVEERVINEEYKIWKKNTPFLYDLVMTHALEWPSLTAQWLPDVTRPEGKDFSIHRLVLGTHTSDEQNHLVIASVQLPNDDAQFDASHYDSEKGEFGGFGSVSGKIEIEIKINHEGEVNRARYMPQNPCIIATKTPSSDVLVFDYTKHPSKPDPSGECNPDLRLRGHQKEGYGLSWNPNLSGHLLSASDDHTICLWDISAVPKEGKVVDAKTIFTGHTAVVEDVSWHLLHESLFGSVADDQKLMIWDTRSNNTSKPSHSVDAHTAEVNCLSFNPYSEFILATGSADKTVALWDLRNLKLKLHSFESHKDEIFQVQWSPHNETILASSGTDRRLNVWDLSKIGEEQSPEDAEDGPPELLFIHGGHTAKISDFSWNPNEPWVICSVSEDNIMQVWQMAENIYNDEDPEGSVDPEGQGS
Format: biochemical
`Cc1cc(C)c(CNC(=O)c2cc(CNCCN(C)C)cc3c2cnn3C2CCCC2)c(=O)[nH]1` [Compound D-53] was tested, and the pIC50 was 6.00 to 6.52.
In the case of `Cc1cc(C)c(CNC(=O)c2cc(C3=CCN(C(=O)CO)CC3)cc3c2cnn3C2CCCC2)c(=O)[nH]1` [Compound D-54], the pIC50 was 6.00 to 6.52.
With `CCC(=O)N1CCC(n2ncc3c(C(=O)NCc4c(C)cc(C)[nH]c4=O)cc(Br)cc32)CC1` [Compound D-55] the pIC50 was 6.00 to 6.52.
`CC(=O)N1CCC(n2ncc3c(C(=O)NCc4c(C)cc(C)[nH]c4=O)cc(Br)cc32)CC1` [Compound D-59] gave a pIC50 of 6.00 to 6.52.
Molecule `CCc1cc(C(=O)NCc2c(C)cc(C)[nH]c2=O)c2cnn(C3CCCC3)c2c1` [Compound D-60] has a pIC50 of 6.00 to 6.52.
Work on `Cc1cc(CN(C)CCCN(C)C)c(CNC(=O)c2cc(Br)cc3c2cnn3C2CCCC2)c(=O)[nH]1` [Compound D-62] yielded a pIC50 of 6.00 to 6.52.
For `Cc1cc(CN2CCN(C)CC2)c(CNC(=O)c2cc(Br)cc3c2cnn3C2CCCC2)c(=O)[nH]1` [Compound D-63], the pIC50 was 6.00 to 6.52.
With `Cc1cc(C)c(CNC(=O)c2cc(CN3CCOCC3)cc3c2cnn3C2CCCC2)c(=O)[nH]1` [Compound D-64] the pIC50 was 6.00 to 6.52.
`Cc1cc(C)c(CNC(=O)c2cccc3c2cnn3C2CCCC2)c(=O)[nH]1` [Compound D-66] showed a pIC50 of 6.00 to 6.52.
`Cc1cc(C)c(CNC(=O)c2cc(CN(C)CCCN(C)C)cc3c2cnn3C2CCCC2)c(=O)[nH]1` [Compound D-67] showed a pIC50 of 6.00 to 6.52.
`Cc1cc(C)c(CNC(=O)c2cc(COCCO)cc3c2cnn3C2CCCC2)c(=O)[nH]1` [Compound D-68] gave a pIC50 of 6.00 to 6.52.
With `Cc1cc(CN2CCNC(=O)C2)c(CNC(=O)c2cc(Br)cc3c2cnn3C2CCCC2)c(=O)[nH]1` [Compound D-69] the pIC50 was 5.52 to 6.00.
`Cc1cc(C)c(CNC(=O)c2cc(Br)cc3c2cnn3C2CCN(C(C)C)CC2)c(=O)[nH]1` [Compound D-70] was tested, and the pIC50 was 5.52 to 6.00.
With `Cc1cc(C)c(CNC(=O)c2cccc3c2cnn3C(C)C)c(=O)[nH]1` [Compound D-71] the pIC50 was 5.52 to 6.00.
Work on `COCCOCc1cc(C(=O)NCc2c(C)cc(C)[nH]c2=O)c2cnn(C3CCCC3)c2c1` [Compound D-72] yielded a pIC50 of 5.52 to 6.00.
Molecule `COCCNCc1cc(C(=O)NCc2c(C)cc(C)[nH]c2=O)c2cnn(C3CCCC3)c2c1` [Compound D-73] has a pIC50 of 5.52 to 6.00.
With `Cc1cc(CN2CCN(C)CC2)c(CNC(=O)c2cccc3c2cnn3C2CCCC2)c(=O)[nH]1` [Compound D-74] the pIC50 was 5.52 to 6.00.
In the case of `Cc1cc(CN(C)CCN(C)C)c(CNC(=O)c2cccc3c2cnn3C2CCCC2)c(=O)[nH]1` [Compound D-75], the pIC50 was 5.52 to 6.00.
`Cc1cc(CN(C)CCN)c(CNC(=O)c2cccc3c2cnn3C2CCCC2)c(=O)[nH]1` [Compound D-76] showed a pIC50 of 5.52 to 6.00.
With `Cc1cc(C)c(CNC(=O)c2cc(CNCCO)cc3c2cnn3C2CCCC2)c(=O)[nH]1` [Compound D-77] the pIC50 was 5.52 to 6.00.
Work on `Cc1cc(C)c(CNC(=O)c2cc(CN(C)CCN(C)C)cc3c2cnn3C2CCCC2)c(=O)[nH]1` [Compound D-78] yielded a pIC50 of 5.52 to 6.00.
`Cc1cc(CN2CCC(N3CCCCC3)CC2)c(CNC(=O)c2cc(Br)cc3c2cnn3C2CCCC2)c(=O)[nH]1` [Compound D-79] gave a pIC50 of 5.52 to 6.00.
`Cc1cc(CN(C)CCCN(C)C)c(CNC(=O)c2cccc3c2cnn3C2CCCC2)c(=O)[nH]1` [Compound D-80] was tested, and the pIC50 was 5.52 to 6.00.
Work on `Cc1cc(CN(C)C)c(CNC(=O)c2cccc3c2cnn3C2CCCC2)c(=O)[nH]1` [Compound D-81] yielded a pIC50 of 5.00 to 5.52.
`Cc1cc(CN2CCCC2)c(CNC(=O)c2cccc3c2cnn3C2CCCC2)c(=O)[nH]1` [Compound D-82] was tested, and the pIC50 was 5.00 to 5.52.
`CNCc1cc(C)[nH]c(=O)c1CNC(=O)c1cccc2c1cnn2C1CCCC1` [Compound D-83] was tested, and the pIC50 was 5.00 to 5.52.
For `Cc1cc(CN2CCOCC2)c(CNC(=O)c2cccc3c2cnn3C2CCCC2)c(=O)[nH]1` [Compound D-84], the pIC50 was 5.00 to 5.52.
`Cc1cc(COCCN(C)C)c(CNC(=O)c2cc(Br)cc3c2cnn3C2CCCC2)c(=O)[nH]1` [Compound D-85] showed a pIC50 of 5.00 to 5.52.
`Cc1cc(COCCCN(C)C)c(CNC(=O)c2cccc3c2cnn3C2CCCC2)c(=O)[nH]1` [Compound D-86] showed a pIC50 of 5.00 to 5.52.
With `Cc1cc(C)c(CNC(=O)c2cc(COCCCN(C)C)cc3c2cnn3C2CCCC2)c(=O)[nH]1` [Compound D-87] the pIC50 was 5.00 to 5.52.
With `Cc1cc(CO)c(CNC(=O)c2cccc3c2cnn3C2CCCC2)c(=O)[nH]1` [Compound D-88] the pIC50 was 4.30 to 5.00.
`Cc1cc(CNCC2CCOCC2)c(CNC(=O)c2cccc3c2cnn3C2CCCC2)c(=O)[nH]1` [Compound D-89] gave a pIC50 of 4.30 to 5.00.
`Cc1cc(COCCCN(C)C)c(CNC(=O)c2cc(Br)cc3c2cnn3C2CCCC2)c(=O)[nH]1` [Compound D-90] showed a pIC50 of 4.30 to 5.00.
With `Cc1cc(C)c(CNC(=O)c2cc(CN3CCC[C@@H]3C(N)=O)cc3c2cnn3C2CCCC2)c(=O)[nH]1` [Compound D-93] the pIC50 was 6.00 to 6.52.
`Cc1cc(C)c(CNC(=O)c2cc(CN3CCNC(=O)C3)cc3c2cnn3C2CCCC2)c(=O)[nH]1` [Compound D-94] showed a pIC50 of 6.00 to 6.52.
Molecule `Cc1cc(C)c(CNC(=O)c2cc(C3=CCN(CCO)CC3)cc3c2cnn3C2CCCC2)c(=O)[nH]1` [Compound D-95] has a pIC50 greater than 6.52.
`Cc1cc(C)c(CNC(=O)c2cc(C3CCN(CCN)CC3)cc3c2cnn3C2CCCC2)c(=O)[nH]1` [Compound D-96] was tested, and the pIC50 was greater than 6.52.
`Cc1cc(C)c(CNC(=O)c2cc(C3CCN(CCO)CC3)cc3c2cnn3C2CCCC2)c(=O)[nH]1` [Compound D-97] gave a pIC50 greater than 6.52.
Molecule `Cc1cc(C)c(CNC(=O)c2cc(Br)cc3c2cnn3C2CCN(C(=O)C3CCC3)CC2)c(=O)[nH]1` [Compound D-98] has a pIC50 of 6.00 to 6.52.
With `Cc1cc(C)c(CNC(=O)c2cccc3c2ccn3C(C)C)c(=O)[nH]1` [Compound E-1] the pIC50 was 5.52 to 6.00.
`Cc1cc(C)c(CNC(=O)c2cc(-c3ccc(CN4CCOCC4)cc3)cc3c2ccn3C2CCCC2)c(=O)[nH]1` [Compound E-2] was tested, and the pIC50 was greater than 6.52.
`Cc1cc(C)c(CNC(=O)c2ccnc3c2ccn3C(C)C)c(=O)[nH]1` [Compound F-1] gave a pIC50 of 5.00 to 5.52.
